Target: human full-length autophosphorylated recombinant HPK1 (Homo sapiens (Human), UniProt Q92918)
Assay: HPK1 biochemical enzyme assay (chelation-enhanced fluorescence, CHEF)
Settings: 0.5 nM HPK1, 45 μM ATP, Morrison fit
Experimental: HPK1 Biochemical Enzyme Assay
HPK1 enzyme inhibition was measured by using the fluorescence-based chelation-enhanced fluorescence (CHEF) method (1), and by using a proprietary fluorescent peptide substrate, in which a cysteine residue is alkylated with a sulfonamido-oxine-based derivative to afford an amino acid termed C-Sox (CSx). […] Initial reaction velocities were determined by following the peptide fluorescence (λex=360 nm, λem=500 nm) at 30° C. for 15 min in a Tecan M1000 plate reader (Tecan Group Ltd., Mannedorf, Zurich, Switzerland).
Production of Autophosphorylated Full-Length Recombinant HPK1
The DNA sequence encoding full-length human HPK1 (Genbank NM_001042600.2) was synthesized at GenScript and contained a limited number of silent base changes to eliminate certain restriction endonuclease enzyme recognition sites, and fused to a DNA sequence encoding a Tobacco Etch Virus (TEV)-cleavable N-terminal polyhistidine purification tag. A recombinant baculovirus was prepared by using the Bac-to-Bac method (InVitrogen) and was used to infect 9 L of Sf21 insect cells. All purification steps were carried out at 4° C. Cells containing recombinant HPK1 were lysed in 50 mM HEPES-NaOH, pH 7.5, 250 mM NaCl, 1 mM tris(2-carboxyethyl)phosphine (TCEP), 10 μM leupeptin (Sigma), 10 μM E-64 (Sigma), and one ‘EDTA-free’ protease inhibitor tablet (Roche) per 75 mL buffer, centrifuged at 15,000×g for 1 h and the supernatant passed over 5 mL of ProBond IMAC resin (InVitrogen). After washing, HPK1 was eluted with 12.5 mL of 50 mM HEPES-NaOH, pH 7.5, 400 mM NaCl, 250 mM imidazole-HCl pH 7.5, 1 mM TCEP, 2 μM leupeptin, and 2 μM E-64. The eluted HPK1 was dialyzed overnight against 0.8 L of 50 mM HEPES-NaOH, pH 7.5, 400 mM NaCl, 20 mM imidazole-HCl pH 7.5, 1 mM TCEP, 2 μM leupeptin, 2 μM E-64, 2 mM ATP-NaOH pH 7.3, 5 mM MgCl2 and 1 mg TEV (this step simultaneously allows for reduction of the imidazole concentration in preparation for the subsequent reverse IMAC chromatography step, removal of the polyhistidine purification tag by TEV protease, and autophosphorylation of HPK1 in the presence of MgATP). The de-tagged and autophosphorylated HPK1 was adjusted to 40 mM imidazole-HCl, pH 7.5, and passed through a 10 mL column of ProBond resin similarly equilibrated. […] The peak fractions containing HPK1 were pooled and concentrated to approximately 2.5 mL by using a centrifugal concentrator (Millipore). The concentrated HPK1 was adjusted to 20% (v/v) glycerol by the addition of 50% (v/v) glycerol, resulting in a final formulation of 25 mM HEPES-NaOH pH 7.5, 250 mM NaCl, 0.25 mM TCEP and 20% (v/v) glycerol. […] Aliquots of the enzyme were flash frozen in liquid nitrogen and stored at −80° C. The final product contains a glycine-serine extension at the N-terminus of the full-length protein, as a result of the cloning strategy.

human full-length autophosphorylated recombinant HPK1, sequence (Q92918 other isoform, or with tags, fused parts or gaps): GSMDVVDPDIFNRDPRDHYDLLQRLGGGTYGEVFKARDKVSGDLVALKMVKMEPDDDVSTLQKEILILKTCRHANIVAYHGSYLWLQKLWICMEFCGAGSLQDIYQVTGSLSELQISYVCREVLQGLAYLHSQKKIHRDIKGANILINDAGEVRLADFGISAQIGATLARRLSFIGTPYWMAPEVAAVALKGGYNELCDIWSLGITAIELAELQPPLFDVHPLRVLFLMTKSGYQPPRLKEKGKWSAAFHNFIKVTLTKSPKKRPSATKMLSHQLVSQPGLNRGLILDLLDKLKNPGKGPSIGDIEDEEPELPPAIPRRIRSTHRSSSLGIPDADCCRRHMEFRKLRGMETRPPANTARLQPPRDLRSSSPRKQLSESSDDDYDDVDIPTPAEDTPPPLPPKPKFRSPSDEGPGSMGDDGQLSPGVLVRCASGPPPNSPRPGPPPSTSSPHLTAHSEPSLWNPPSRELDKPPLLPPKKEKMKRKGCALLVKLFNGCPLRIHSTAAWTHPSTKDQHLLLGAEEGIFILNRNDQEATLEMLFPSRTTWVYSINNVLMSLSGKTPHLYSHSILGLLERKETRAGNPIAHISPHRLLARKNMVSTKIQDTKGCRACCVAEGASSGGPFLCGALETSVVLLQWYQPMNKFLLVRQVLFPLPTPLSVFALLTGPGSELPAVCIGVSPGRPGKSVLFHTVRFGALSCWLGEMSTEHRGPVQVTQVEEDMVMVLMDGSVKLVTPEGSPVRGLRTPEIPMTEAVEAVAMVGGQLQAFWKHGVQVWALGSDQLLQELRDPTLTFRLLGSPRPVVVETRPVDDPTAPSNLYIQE

In order of rising Ki:
1. CC[C@H](N)c1nc(N2CCC[C@H]2C)cc2c1CN(c1cccc(-c3nncn3CC)n1)C2=O [Example 141, 4-[(1S)-1-aminopropyl]-2-[6-(4-ethyl-4H-1,2,4-triazol-3-yl)pyridin-2-yl]-6-[(2R)-2-methylpyrroli-din-1-yl]-2,3-dihydro-1H-pyrrolo[3,4-c]pyridin-1-one]  0.44 nM
2. CCCn1cnnc1-c1cccc(N2Cc3c(cc(N4CCC[C@H]4C)nc3[C@@H](N)CC)C2=O)n1 [Example 145, 4-[(1S)-1-aminopropyl]-6-[(2R)-2-methylpyrroli-din-1-yl]-2-[6-(4-propyl-4H-1,2,4-triazol-3-yl)pyridin-2-yl]-2,3-dihydro-1H-pyrrolo[3,4-c]pyridin-1-one]  0.46 nM
3. CC[C@H](N)c1nc(N(C)C)cc2c1CN(c1cccc(-c3nncn3CC)n1)C2=O (stereo in doubt) [Example 147, 4-[(1ξ)-1-aminopropyl]-6-(dimethyl-amino)-2-[6-(4-ethyl-4H-1,2,4-triazol-3-yl)pyridin-2-yl]-2,3-dihydro-1H-pyrrolo[3,4-c]pyridin-1-one]  1 nM
4. CCn1cnnc1-c1cccc(N2Cc3c(cc(N(C)C)nc3[C@@H](C)N)C2=O)n1 (stereo in doubt) [Example 153, 4-[(1ξ)-1-aminoethyl]-6-(dimethyl-amino)-2-[6-(4-ethyl-4H-1,2,4-triazol-3-yl)pyridin-2-yl]-2,3-dihydro-1H-pyrrolo[3,4-c]pyridin-1-one]  1.25 nM
5. CC[C@@H]1CCc2nnc(-c3cccc(N4Cc5c(cc(N(C)C(C)C)nc5CNC)C4=O)n3)n21 [Example 204, 2-{6-[(5R)-5-ethyl-6,7-dihydro-5H-pyrrolo[2,1-c] [1,2,4]triazol-3-yl]pyridin-2-yl}-4-[(methyl-amino)methyl]-6-[methyl (propan-2-yl)amino]-2,3-dihydro-1H-pyrrolo[3,4-c] pyridin-1-one]  1.29 nM
6. C[C@@H](N)c1nc(C2(C)CC2)cc2c1CN(c1cccc(-c3nncn3C3CCC3)n1)C2=O (stereo in doubt) [Example 103, 4-[(1ξ)-1-aminoethyl]-2-[6-(4-cyclobutyl-4H-1,2,4-triazol-3-yl)pyridin-2-yl]-6-(1-methylcyclo-propyl)-2,3-dihydro-1H-pyrrolo[3,4-c]pyridin-1-one]  1.38 nM
7. CCN(C)c1cc2c(c([C@@H](C)N)n1)CN(c1cccc(-c3nnc(C)n3CC)n1)C2=O (stereo in doubt) [Example 127, 4-[(1ξ)-1-aminoethyl]-6-[ethyl(methyl)amino]-2-[6-(4-ethyl-5-methyl-4H-1,2,4-triazol-3-yl)pyridin-2-yl]-2,3-dihydro-1H-pyrrolo[3,4-c]pyridin-1-one]  1.41 nM
8. CCC(CC)n1cnnc1-c1cccc(N2Cc3c(cc(C4(C)CC4)nc3[C@H](C)N)C2=O)n1 (stereo in doubt) [Example 125, 4-[(1ξ)-1-aminoethyl]-6-(1-methyl-cyclopropyl)-2-{6-[4-(pentan-3-yl)-4H-1,2,4-triazol-3-yl]pyridin-2-yl}-2,3-dihydro-1H-pyrrolo[3,4-c]pyridin-1-one]  1.42 nM
9. C[C@@H]1CCCN1c1cc2c(c([C@@H](C)N)n1)CN(c1cccc(-c3nnc4n3[C@@H](C)CC4)n1)C2=O [Example 24, 4-[(1ξ)-1-aminoethyl]-2-{6-[(5ξ)-5-methyl-6,7-dihydro-5H-pyrrolo[2,1-c][1,2,4]triazol-3-yl]pyridin-2-yl}-6-[(2R)-2-methylpyrroli-din-1-yl]-2,3-dihydro-1H-pyrrolo[3,4-c]pyridin-1-one]  1.76 nM
10. CCC(CC)n1cnnc1-c1cccc(N2Cc3c(cc(C4(C)CC4)nc3[C@@H](C)N)C2=O)n1 (stereo in doubt) [Example 126, 4-[(1ξ)-1-aminoethyl]-6-(1-methyl-cyclopropyl)-2-{6-[4-(pentan-3-yl)-4H-1,2,4-triazol-3-yl]pyridin-2-yl}-2,3-dihydro-1H-pyrrolo[3,4-c]pyridin-1-one]  1.78 nM
11. CC[C@@H](N)c1nc(C2(C)CC2)cc2c1CN(c1cccc(-c3nncn3C3CCC3)n1)C2=O (stereo in doubt) [Example 105, 4-[(1ξ)-1-aminopropyl]-2-[6-(4-cyclobutyl-4H-1,2,4-triazol-3-yl)pyridin-2-yl]-6-(1-methylcyclo-propyl)-2,3-dihydro-1H-pyrrolo[3,4-c]pyridin-1-one]  2.01 nM
12. CNCc1nc(N(C)C)cc2c1CN(c1cccc(-c3nnc4n3[C@H](C)CC4)n1)C2=O [Example 209, 6-(dimethyl-amino)-4-[(methylamino)methyl]-2-{6-[(5R)-5-methyl-6,7-dihydro-5H-pyrrolo[2,1-c] [1,2,4]triazol-3-yl]pyridin-2-yl}-2,3-dihydro-1H-pyrrolo[3,4-c] pyridin-1-one]  2.11 nM
13. C[C@H](N)c1nc(C2(C)CC2)cc2c1CN(c1cccc(-c3nncn3C3CCC3)n1)C2=O (stereo in doubt) [Example 104, 4-[(1ξ)-1-aminoethyl]-2-[6-(4-cyclobutyl-4H-1,2,4-triazol-3-yl)pyridin-2-yl]-6-(1-methylcyclo-propyl)-2,3-dihydro-1H-pyrrolo[3,4-c]pyridin-1-one]  2.36 nM
14. CC[C@@H]1CCc2nnc(-c3cccc(N4Cc5c(cc(N(C)C)nc5CNC)C4=O)n3)n21 [Example 207, 6-(dimethyl-amino)-2-{6-[(5R)-5-ethyl-6,7-dihydro-5H-pyrrolo[2,1-c] [1,2,4]triazol-3-yl]pyridin-2-yl}-4-[(methyl-amino)methyl]-2,3-dihydro-1H-pyrrolo[3,4-c] pyridin-1-one]  2.68 nM
15. CC[C@@H]1CCc2nnc(-c3cccc(N4Cc5c(cc(N6CCC[C@H]6C)nc5[C@@H](C)N)C4=O)n3)n21 [Example 7, 4-[(1R)-1-aminoethyl]-2-{6-[(5R)-5-ethyl-6,7-dihydro-5H-pyrrolo[2,1-c][1,2,4]triazol-3-yl]pyridin-2-yl}-6-[(2R)-2-methylpyrroli-din-1-yl]-2,3-dihydro-1H-pyrrolo[3,4-c]pyridin-1-one]  2.8 nM
16. CC[C@@H](N)c1nc(N(C)C)cc2c1CN(c1cccc(-c3nncn3CC)n1)C2=O (stereo in doubt) [Example 146, 4-[(1ξ)-1-aminopropyl]-6-(dimethyl-amino)-2-[6-(4-ethyl-4H-1,2,4-triazol-3-yl)pyridin-2-yl]-2,3-dihydro-1H-pyrrolo[3,4-c]pyridin-1-one]  3.14 nM
17. CCCn1cnnc1-c1cccc(N2Cc3c(cc(N(C)C)nc3[C@@H](N)CC)C2=O)n1 [Example 143, 4-[(1ξ)-1-aminopropyl]-6-(dimethyl-amino)-2-[6-(4-propyl-4I-1,2,4-triazol-3-yl)pyridin-2-yl]-2,3-dihydro-1I-pyrrolo[3,4-c]pyridin-1-one]  3.73 nM
18. CC[C@@H]1CCc2nnc(-c3cccc(N4Cc5c(cc(N6CCC[C@H]6C)nc5[C@H](C)N)C4=O)n3)n21 [Example 8, 4-[(1S)-1-aminoethyl]-2-{6-[(5R)-5-ethyl-6,7-dihydro-5H-pyrrolo[2,1-c][1,2,4]triazol-3-yl]pyridin-2-yl}-6-[(2R)-2-methylpyrroli-din-1-yl]-2,3-dihydro-1H-pyrrolo[3,4-c]pyridin-1-one]  5.6 nM
19. CC[C@H]1CCc2nnc(-c3cccc(N4Cc5c(cc(N6CCC[C@H]6C)nc5[C@@H](N)CC)C4=O)n3)n21 [Example 15, 4-[(1S)-1-aminopropyl]-2-{6-[(5ξ)-5-ethyl-6,7-dihydro-5H-pyrrolo[2,1-c][1,2,4]triazol-3-yl]pyridin-2-yl}-6-[(2R)-2-methylpyrroli-din-1-yl]-2,3-dihydro-1H-pyrrolo[3,4-c]pyridin-1-one]  8.47 nM
